Where a SMILES comes first, the peptide text is derived from it. The star is where a group is joined. Cbz = O=C(OCc1ccccc1)*
Key:
SHP2 [1] = target: T1, SHP2 (Homo sapiens, UniProt Q06124); experiment: SHP2 degradation by Western blot in KYSE520 cells; conditions: for block of SHP2-D26-induced degradation of SHP2 protein: KYSE520, pre-treatment 1 h (VHL 10 µM, compound 4 10 µM, MLN4924 0.5 µM, MG132 3 µm), then SHP2-D26 0.1 µM
T1 sequence (Q06124 1-593): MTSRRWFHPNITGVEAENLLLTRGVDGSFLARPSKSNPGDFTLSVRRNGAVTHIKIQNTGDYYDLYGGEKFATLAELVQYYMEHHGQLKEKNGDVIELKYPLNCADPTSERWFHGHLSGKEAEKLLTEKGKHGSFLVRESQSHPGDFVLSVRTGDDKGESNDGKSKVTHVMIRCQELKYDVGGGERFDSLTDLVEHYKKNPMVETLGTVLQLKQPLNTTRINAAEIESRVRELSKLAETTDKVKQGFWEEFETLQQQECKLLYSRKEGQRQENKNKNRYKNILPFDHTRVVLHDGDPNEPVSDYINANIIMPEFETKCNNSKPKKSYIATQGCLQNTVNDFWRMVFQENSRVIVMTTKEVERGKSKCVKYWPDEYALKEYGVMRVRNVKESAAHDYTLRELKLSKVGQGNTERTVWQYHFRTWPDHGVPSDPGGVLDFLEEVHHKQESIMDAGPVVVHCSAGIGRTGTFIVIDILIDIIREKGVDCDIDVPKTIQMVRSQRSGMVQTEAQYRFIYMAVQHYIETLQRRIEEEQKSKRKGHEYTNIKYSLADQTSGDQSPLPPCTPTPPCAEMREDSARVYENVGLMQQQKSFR
Protocol: (§1) Western blotting and quantification were performed with regular western blot method and band quantification was performed using ImageJ. Treated cells were lysed by RIPA buffer supplemented with protease and phosphatase inhibitors. […] The net protein bands and loading controls are calculated by deducting the background from the inverted band value. The final relative quantification values are the ratio of the net band to net loading control.
(§2) The treated cells were harvested and the level of SHP2 protein was examined by blot analysis. GAPDH was used as a loading control.
(§3) SHP2 protein was examined by Western blotting and the protein level was quantified by densitometry and normalized to the corresponding density of the GAPDH protein. […] Cells were treated with 100 nM of SHP2-D26 for different times. SHP2 protein was examined by Western blotting and the GAPDH protein was used as the loading control.

SHP2 [2] = target: T1, SHP2; experiment: SHP2 degradation by Western blot in MV4;11 cells; conditions: 0.1 µM
Protocol: as §1, §2, §3

Compound	% of SHP2 protein degradation in KYSE520 cell line (SHP2 [1]; 0.1 µM) [%]	% of SHP2 protein degradation in KYSE520 cell line (SHP2 [1]; 1 µM) [%]	% of SHP2 protein degradation in MV4;11 cell line (SHP2 [2]) [%]	block of SHP2-D26-induced degradation of SHP2 protein (SHP2 [1])
Cc1ncsc1-c1ccc([C@@H](C)NC(=O)[C@H]2C[C@H](O)CN2C(=O)[C@H](NC(=O)CCCCCCCCCCNC(=O)CCC(=O)Nc2cccc(Sc3ncc(N4CCC(C)(N)CC4)nc3N)c2Cl)C(C)(C)C)cc1 [Compound 17]	>95	>95	–	–
Cc1ncsc1-c1ccc([C@@H](C)NC(=O)[C@H]2C[C@H](O)CN2C(=O)[C@H](NC(=O)CCCCCCCCCCNC(=O)CC(=O)Nc2cccc(Sc3ncc(N4CCC(C)(N)CC4)nc3N)c2Cl)C(C)(C)C)cc1 [Compound 15]	>95	>95	–	–
Cc1ncsc1-c1ccc([C@@H](C)NC(=O)[C@H]2C[C@H](O)CN2C(=O)[C@H](NC(=O)CCCNC(=O)CC(=O)Nc2cccc(Sc3ncc(N4CCC(C)(N)CC4)nc3N)c2Cl)C(C)(C)C)cc1 [Compound 8]	9	7	–	–
Cc1ncsc1-c1ccc([C@@H](C)NC(=O)[C@H]2C[C@H](O)CN2C(=O)[C@H](NC(=O)CCCCCCCCCCCCCCC(=O)Nc2cccc(Sc3ncc(N4CCC(C)(N)CC4)nc3N)c2Cl)C(C)(C)C)cc1 [Compound 25]	62	90	8	–
Cc1ncsc1-c1ccc([C@@H](C)NC(=O)[C@H]2C[C@H](O)CN2C(=O)[C@H](NC(=O)COCCOCCOCCOCCNC(=O)CCC(=O)Nc2cccc(Sc3ncc(N4CCC(C)(N)CC4)nc3N)c2Cl)C(C)(C)C)cc1 [Compound 22]	53	>95	95	–
Cc1ncsc1-c1ccc([C@@H](C)NC(=O)[C@H]2C[C@H](O)CN2C(=O)[C@H](NC(=O)CCCCCCCCCCCN2CCN(CC(=O)Nc3cccc(Sc4ncc(N5CCC(C)(N)CC5)nc4N)c3Cl)CC2)C(C)(C)C)cc1 [Compound 24]	80	>95	6	–
Cc1ncsc1-c1ccc([C@@H](C)NC(=O)[C@H]2C[C@H](O)CN2C(=O)[C@H](NC(=O)CCCCCCCCCCCNC(=O)CCCC(=O)Nc2cccc(Sc3ncc(N4CCC(C)(N)CC4)nc3N)c2Cl)C(C)(C)C)cc1 [Compound 19]	>95	>95	–	–
Cc1ncsc1-c1ccc([C@@H](C)NC(=O)[C@H]2C[C@H](O)CN2C(=O)[C@H](NC(=O)CCCCNC(=O)CC(=O)Nc2cccc(Sc3ncc(N4CCC(C)(N)CC4)nc3N)c2Cl)C(C)(C)C)cc1 [Compound 9]	13	6	–	–
Cc1ncsc1-c1ccc([C@@H](C)NC(=O)[C@H]2C[C@H](O)CN2C(=O)[C@H](NC(=O)CCCCCNC(=O)CC(=O)Nc2cccc(Sc3ncc(N4CCC(C)(N)CC4)nc3N)c2Cl)C(C)(C)C)cc1 [Compound 10]	0	3	–	–
Cc1ncsc1-c1ccc([C@@H](C)NC(=O)[C@H]2C[C@H](O)CN2C(=O)[C@H](NC(=O)CCOCCOCCOCCNC(=O)CCC(=O)Nc2cccc(Sc3ncc(N4CCC(C)(N)CC4)nc3N)c2Cl)C(C)(C)C)cc1 [Compound 21]	32	87	85	–
Cc1ncsc1-c1ccc([C@@H](C)NC(=O)[C@H]2C[C@H](O)CN2C(=O)[C@H](NC(=O)CCCCCCNC(=O)CC(=O)Nc2cccc(Sc3ncc(N4CCC(C)(N)CC4)nc3N)c2Cl)C(C)(C)C)cc1 [Compound 11]	0	0	–	–
Cc1ncsc1-c1ccc([C@@H](C)NC(=O)[C@H]2C[C@H](O)CN2C(=O)[C@H](NC(=O)CCCCCCCOc2ccc(NC(=O)CCC(=O)Nc3cccc(Sc4ncc(N5CCC(C)(N)CC5)nc4N)c3Cl)cc2)C(C)(C)C)cc1 [Compound 28]	>95	>95	90	–
CC(C)C[C@@H](C=O)NC(=O)[C@H](CC(C)C)NC(=O)[C@H](CC(C)C)NC(=O)OCc1ccccc1 [MG132, reference compound] (Cbz-Leu-Leu-Leu-aldehyde)	–	–	–	effectively block degradation of SHP2 protein
NS(=O)(=O)OC[C@@H]1C[C@@H](n2ccc3c(N[C@H]4CCc5ccccc54)ncnc32)C[C@@H]1O [MLN4924, reference compound]	–	–	–	effectively block degradation of SHP2 protein
Cc1ncsc1-c1ccc([C@@H](C)NC(=O)[C@H]2C[C@H](O)CN2C(=O)[C@H](NC(=O)CCCCCCCCCCCNC(=O)CC(=O)Nc2cccc(Sc3ncc(N4CCC(C)(CN)CC4)nc3N)c2Cl)C(C)(C)C)cc1 [Compound 40]	>95	>95	>95	–
Cc1ncsc1-c1ccc([C@@H](C)NC(=O)[C@H]2C[C@H](O)CN2C(=O)[C@H](NC(=O)CCCCCCCCCCCNC(=O)CCC(=O)Nc2cccc(Sc3ncc(N4CCC(C)(N)CC4)nc3N)c2Cl)C(C)(C)C)cc1 [Compound 18]	>95	>95	–	–
Cc1ncsc1-c1ccc([C@@H](C)NC(=O)[C@H]2C[C@H](O)CN2C(=O)[C@H](NC(=O)CCCCCCCCNC(=O)CC(=O)Nc2cccc(Sc3ncc(N4CCC(C)(N)CC4)nc3N)c2Cl)C(C)(C)C)cc1 [Compound 13]	81	80	–	–
Cc1ncsc1-c1ccc([C@@H](C)NC(=O)[C@H]2C[C@H](O)CN2C(=O)[C@H](NC(=O)CCCCCCCCCN2CCN(C(=O)CCC(=O)Nc3cccc(Sc4ncc(N5CCC(C)(N)CC5)nc4N)c3Cl)CC2)C(C)(C)C)cc1 [Compound 27]	>95	>95	>95	–
Cc1ncsc1-c1ccc([C@@H](C)NC(=O)[C@H]2C[C@H](O)CN2C(=O)[C@H](NC(=O)CCCCCCCCCCCNC(=O)CC(=O)Nc2cccc(Sc3ncc(N4CCC(C)(N)CC4)nc3N)c2Cl)C(C)(C)C)cc1 [Compound 16]	>95	93	–	–
Cc1ncsc1-c1ccc([C@@H](C)NC(=O)[C@H]2C[C@H](O)CN2C(=O)[C@H](NC(=O)CCCCCCCCCNC(=O)CC(=O)Nc2cccc(Sc3ncc(N4CCC(C)(N)CC4)nc3N)c2Cl)C(C)(C)C)cc1 [Compound 14]	>95	92	–	–
Cc1ncsc1-c1ccc([C@H](C)NC(=O)[C@@H]2C[C@@H](O)CN2C(=O)[C@@H](NC(=O)CCOCCOCCOCCNC(=O)CC(=O)Nc2cccc(Sc3ncc(N4CCC5(CCC[C@@H]5N)CC4)nc3N)c2Cl)C(C)(C)C)cc1 [Compound 42]	>95	>95	94	–
Cc1ncsc1-c1ccc([C@@H](C)NC(=O)[C@H]2C[C@H](O)CN2C(=O)[C@H](NC(=O)CCCCCCCNC(=O)CC(=O)Nc2cccc(Sc3ncc(N4CCC(C)(N)CC4)nc3N)c2Cl)C(C)(C)C)cc1 [Compound 12]	20	14	–	–
Cc1ncsc1-c1ccc([C@@H](C)NC(=O)[C@H]2C[C@H](O)CN2C(=O)[C@H](NC(=O)COCCOCCOCCNC(=O)CCC(=O)Nc2cccc(Sc3ncc(N4CCC(C)(N)CC4)nc3N)c2Cl)C(C)(C)C)cc1 [Compound 20]	80	>95	>95	–
